Measured values: US20240124491A1, “METHODS AND COMPOUNDS FOR TREATING FRIEDREICH'S ATAXIA” (Design Therapeutics, Inc., priority 2021, published 2024)

System: human FXN
Test: EC50 assay: FXN mRNA expression by qRT-PCR in GM15850 cells after 48 hrs compound treatment
Format: cell-based
Settings: Homo sapiens, 48 hrs incubation, hFXN expression normalized to hGAPDH (qRT-PCR), read-out: EC50 WT (nM, 48 hr)
Procedure, shortened: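 FXN transcript, normalized to GAPDH by TaqMan qRT-PCR, read out after 48 hrs of compound on GM15850 cells plated at 150,000 per well. Dosing used five 3-fold steps from 150 nM final, vehicle 0.01% DMSO.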

SMILES | EC50
Cc1cc(F)cc(C)c1Oc1ccc(C(C)(C)O)cc1-c1cn(C)c(=O)c2[nH]c(C(=O)Nc3ccc(OCCOCCOCCOCCOCCOCCOCCOCCOCCNC(=O)CCNC(=O)c4nc(NC(=O)CCNC(=O)c5cc(NC(=O)c6nc(NC(=O)CCNC(=O)c7cc(NC(=O)c8nccn8C)c[nH]7)cn6C)c[nH]5)cn4C)cc3)cc12 [Compound 224, N-(5-{[2-({2-[(2-{[26-(4-{4-[2-(4-fluoro-2,6-dimethylphenoxy)-5-(2-hydroxypropan-2-yl)phenyl]-6-methyl-7-oxo-1H-pyrrolo[2,3-c]pyridine-2-amido}phenoxy)-3,6,9,12,15,18,21,24-octaoxahexacosan-1-yl]carbamoyl]ethyl)carbamoyl]-1-methylimidazol-4-yl]carbamoyl)ethyl]carbamoyl]-1H-pyrrol-3-yl)-1-methyl-4-(3-{[4-(1-methylimidazole-2-amido)-1H-pyrrol-2-yl]formamido]propanamido)imidazole-2-carboxamide] | < 100 nM
Cc1sc2c(c1C)C(c1ccc(Cl)cc1)=N[C@@H](CC(=O)Nc1ccc(OCCOCCOCCOCCOCCOCCOCCOCCOCCNC(=O)CCNC(=O)CCNC(=O)c3nc(NC(=O)CCNC(=O)c4cc(NC(=O)c5nc(NC(=O)CCNC(=O)c6cc(NC(=O)c7nccn7C)cn6C)cn5C)cn4C)cn3C)cc1)c1nnc(C)n1-2 [Compound 229] | < 100 nM
Cc1sc2c(c1C)C(c1ccc(Cl)cc1)=N[C@H](CC(=O)Nc1ccc(OCCOCCOCCOCCOCCOCCOCCOCCOCCNC(=O)CCNC(=O)c3nc(NC(=O)CCNC(=O)c4cc(NC(=O)c5nc(NC(=O)CCNC(=O)c6cc(NC(=O)c7nccn7C)cn6C)cn5C)cn4C)cn3C)cc1)c1nnc(C)n1-2 [Compound 231] | < 100 nM
Cc1cc(F)cc(C)c1Oc1ccc(C(C)(C)O)cc1-c1cn(C)c(=O)c2[nH]c(C(=O)Nc3ccc(OCCOCCOCCOCCOCCOCCOCCOCCOCCNC(=O)CCNC(=O)c4nc(NC(=O)CCNC(=O)c5cc(NC(=O)c6nc(NC(=O)CCNC(=O)c7cc(NC(=O)c8nccn8C)cn7C)cn6C)cn5C)cn4C)c(OC(=O)c4cc5c(-c6cc(C(C)(C)O)ccc6Oc6c(C)cc(F)cc6C)cn(C)c(=O)c5[nH]4)c3)cc12 [Compound 240] | < 100 nM
COCCOCCOCCOCCN(CCCCCn1cc(NC(=O)c2nc(NC(=O)CCNC(=O)c3cc(NC(=O)c4nccn4C)cn3C)cn2C)cc1C(=O)NCCC(=O)Nc1cn(C)c(C(=O)NCCC(=O)NCCOCCOCCOCCOCCOCCOCCOCCOCCOc2ccc(NC(=O)c3cc4c(-c5cc(C(C)(C)O)ccc5Oc5c(C)cc(F)cc5C)cn(C)c(=O)c4[nH]3)cc2)n1)CCOCCOCCOCCOC [Compound 241] | > 500 nM
COCCOCCOCCOCCOCCOCCOCCOCCN(CCCCCn1cc(NC(=O)c2nc(NC(=O)CCNC(=O)c3cc(NC(=O)c4nccn4C)cn3C)cn2C)cc1C(=O)NCCC(=O)Nc1cn(C)c(C(=O)NCCC(=O)NCCOCCOCCOCCOCCOCCOCCOCCOCCOc2ccc(NC(=O)c3cc4c(-c5cc(C(C)(C)O)ccc5Oc5c(C)cc(F)cc5C)cn(C)c(=O)c4[nH]3)cc2)n1)CCOCCOCCOCCOCCOCCOCCOCCOC [Compound 242] | < 100 nM
